Experimental data published in patent US5736548A, “6-aryl pyrazolo[3,4-D] pyrimidin-4-ones and compositions and method of use thereof” (Sanofi, priority 1997, dated 1998).
Several values for one entry are separate records, joined by “and”; a condition that tells them apart may be missing. Identical values can stand only once. Counter-ions that a name gives are not always drawn. Like-named read-outs stand apart in the source and are kept apart here.

Assays:
[1] = tested on: Spontaneously hypertensive rats (SHR); test: Antihypertensive activity in conscious spontaneously hypertensive rats (mean arterial pressure); type: in vivo; settings: Rattus norvegicus, 5 min, SHR iv
Procedure: After a 2 day recovery from surgery, three baseline blood pressure measurements were made at 5 min intervals in conscious SHR. Compounds to be tested or vehicle were then administered intravenously in a dose-dependent manner (0.3-10 mg base/kg) while arterial pressure was recorded continuously on a polygraph. The mean arterial pressure response was measured 5 minutes after the administration of each dose of the test compound and the next dose given in a cumulative dose fashion. The response to each dose of the test compound was calculated as the difference from the mean of the three baseline measurements.

cGMP-PDE V = cGMP-PDE V (Homo sapiens, UniProt O76074); test: biochemical; set-up: species or system various animal species and man; settings: for IC50: values separated by / and marked * are separate experimental runs; for inhibition at 0.1 µM / inhibition at 1 µM / inhibition at 10 µM / inhibition at 0.01 µM: read-out: Percent Inhibition cGMP-PDE V
Procedure: The cGMP-PDE and other PDE isozymes were isolated from cardiovascular tissues (heart and aorta) of various animal species and man by anion-exchange and affinity chromatography as described by Silver et al., Sec. Messeng. Phos. 13:13-25, 1991; PDE activity, in the presence and absence of test compounds was determined essentially as described by Thompson et al., Adv. Cyclic Nucleotide Res. 10:69-92. To determine the potency and selectivity of compounds as PDE inhibitors, compounds are screened for their effect on cyclic nucleotide hydrolysis at 10 μM. […] The IC50 values are calculated from concentration-response curves as described by Tallarida and Murray, Manual of Pharmacologic Calculations with Computer Programs, Procedure 8, Graded Dose-response, pp. 14-19, Springer-Verlag, New York, 1981.

[2] = tested on: nitroglycerin tolerant spontaneously hypertensive rats; test: Reversal of nitroglycerin-induced tolerance in spontaneously hypertensive rats; type: in vivo; settings: tolerant rats, vehicle pretreated, nitroglycerin 1-300 μg/kg iv
Procedure: Spontaneously hypertensive rats (17-25 weeks of age) were made nitroglycerin tolerant by repeated administration of high doses of nitroglycerin (100 mg/kg, s.c., 3 times/day for 3 consecutive days). To confirm tolerance challenge doses of nitroglycerin were administered intravenously at doses ranging from 1-300 μg/kg and the maximum change in mean arterial pressure (MAP) for each dose was recorded. Groups of tolerant rats were pretreated with the compounds of the invention (tolerant pretreated group) or with vehicle (0.05N NaOH) (tolerant vehicle pretreated group) intravenously 5-10 minutes prior to administration of challenge doses of nitroglycerin. The administration of challenge doses of nitroglycerin to non-tolerant rats (the non-tolerant group) caused a dose-dependent decrease in MAP of between 10 to 40 mm Hg. […] The area under the dose-MAP curve was calculated for the non-tolerant group and for the tolerant vehicle pretreated group and the tolerant pretreated group. The percent reversal of nitrate-inducedtolerance was calculated as follows:
Percent Reversal=(AUCtol -pretreated-AUCtol-veh)/(AUCnontol
AUCnontol =the area under the dose-MAP curve for the non-tolerant group.
AUCtol-veh =the area under the dose-MAP curve for the tolerant vehicle pretreated group.
AUCtol-pretreated =the area under the dose-MAP curve for the tolerant pretreated group.
The following table summarizes the results obtained from the testing of representative compounds of the invention.

Compound	IC50 (cGMP-PDE V)	inhibition at 0.1 µM (cGMP-PDE V; 0.1 μM) [%]	inhibition at 1 µM (cGMP-PDE V; 1 μM) [%]	other results
CCCOc1ccccc1-c1nc2n(C3CCCC3)[nH]c(C)c-2c(=O)n1 [1 (c), 1-cyclopentyl-3-methyl-6-(2-propoxyphenyl)-pyrazolo[3,4-d]pyrimidin-4-one]	7 nM and 3 nM	–	–	change in vivo at 1 mg/kg ([1]; 5 minutes after dose): -5%
O=[N+]([O-])OCC(CO[N+](=O)[O-])O[N+](=O)[O-] [nitroglycerin, reference compound]	–	–	–	hypotensive response to nitroglycerin challenge, tolerant vehicle pretreated group (in words) [2]: significant reduction of the hypotensive response
CCc1[nH]n(C2CCCC2)c2nc(-c3ccccc3C)nc(=O)c1-2 [Example 3, 1-cyclopentyl-3-ethyl-6-(2-methylphenyl)-pyrazolo[3,4-d]pyrimidin-4-one]	200 nM	–	–	change in vivo at 1 mg/kg ([1]; 5 minutes after dose): -7%
CCOc1ccccc1-c1nc2n(C3CCCC3)[nH]c(CC)c-2c(=O)n1 [Example 4, 1-cyclopentyl-3-ethyl-6-(2-ethoxyphenyl)-pyrazolo[3,4-d]pyrimidin-4-one]	5.8 nM	–	–	change in vivo at 10 mg/kg ([1]; 5 minutes after dose): -13%
CCc1[nH]n(C2CCCC2)c2nc(-c3cccc(OCCN4CCSCC4)c3)nc(=O)c1-2 [41 (c), 1-cyclopentyl-3-ethyl-6-[3-[2-(4-thiomorpholinyl)ethoxy]phenyl]pyrazolo[3,4-d]pyrimidin-4-one]	–	46	56	–
CCCOc1ccccc1-c1nc2[nH]ncc2c(=O)[nH]1 [17 (c), 6-(2-propoxyphenyl)pyrazolo[3,4-d]pyrimidin-4-one 1/4 hydrate]	–	–	–	inhibition at 0.1 µM (cGMP-PDE V): 14%; inhibition at 1 µM (cGMP-PDE V): 19%; inhibition at 10 µM (cGMP-PDE V): 39%
CCc1[nH]n(C2CCCC2)c2nc(-c3ccc([N+](=O)[O-])cc3)nc(=O)c1-2 [Example 28, 1-cyclopentyl-3-ethyl-6-(4-nitrophenyl)pyrazolo [3,4-d]pyrimidin-4-one]	–	–	40	–
CCc1[nH]n(C2CCCC2)c2nc(-c3cccc(-n4ccnc4)c3)nc(=O)c1-2 [24 (c), 1-cyclopentyl-3-ethyl-6-[3-(1-imidazolyl)phenyl]pyrazolo-[3,4-d]pyrimidin-4-one]	130 nM	–	–	ED25 [1]: 12.7 mg/kg; change in vivo at 3 mg/kg ([1]; 3 mg/kg, 5 minutes after dose): -13%; change in vivo at 10 mg/kg ([1]; 5 minutes after dose): -21%
C=CCc1cccc(-c2nc3n(C4CCCC4)[nH]c(CC)c-3c(=O)n2)c1O [Example 36, 1-cyclopentyl-3-ethyl-6-[2-hydroxy-3-(2-propenyl)phenyl]pyrazolo[3,4-d]pyrimidin-4-one]	–	0	4	–
CCc1nn(C2CCCC2)c2nc(-c3cccc(OCCN(C)C)c3)[nH]c(=O)c12 [23 (c)]	540 nM	–	–	–
CCc1[nH]n(C2CCCC2)c2nc(-c3cccc(OCc4ccncc4)c3)nc(=O)c1-2 [42 (c), 1-cyclopentyl-3-ethyl-6-[3-[4-pyridinylmethoxy]phenyl]pyrazolo[3,4-d]pyrimidin-4-one]	–	56	–	inhibition at 0.01 µM (cGMP-PDE V; 0.01 μM): 25%
CCc1[nH]n(C2CCCC2)c2nc(-c3ccccc3OC)nc(=O)c1-2 [Example 5, 1-cyclopentyl-3-ethyl-6-(2-methoxyphenyl)-pyrazolo[3,4-d]pyrimidin-4-one]	87 nM	–	–	change in vivo at 1 mg/kg ([1]; 5 minutes after dose): -8%
CCc1[nH]n(C2CCCC2)c2nc(-c3cccc(O)c3)nc(=O)c1-2 [Example 44, 1-cyclopentyl-3-ethyl-6-(3-hydroxyphenyl)pyrazolo[3,4-d]pyrimidin-4-one]	–	29	56	–
CCc1[nH]n(C2CCCC2)c2nc(-c3ccccc3)nc(=O)c1-2 [Example 2, 1-cyclopentyl-3-ethyl-6-phenyl-pyrazolo[3,4-d]pyrimidin-4-one]	250 nM	–	–	–
CCc1[nH]n(C2CCCC2)c2nc(-c3cccc(OCC(=O)N4CCOCC4)c3)nc(=O)c1-2 [40 (d), 1-cyclopentyl-3-ethyl-6-[3-(4-morpholinylcarbonylmethoxy)-phenyl]pyrazolo[3,4-d]pyrimidin-4-one]	–	47	74	–
CCc1[nH]n(C2CCCC2)c2nc(-c3cccc(OC4CCCCN(C)C4)c3)nc(=O)c1-2 (stereo not shown) [43 (b), 1-cyclopentyl-3-ethyl-6-[3-(1-methyl-3-hexahydroazepinyloxy)phenyl]pyrazolo[3,4-d]pyrimidin-4-one]	–	41	75	–
1-cyclopentyl-3-ethyl-6-[2-methyl-2,3-dihydrobenzo[b]furan-5-yl]pyrazolo[3,4-d]pyrimidin-4-one [Example 39]	–	–	–	Percent Inhibition cGMP-PDE V (cGMP-PDE V; 0.01 μM): 24%; Percent Inhibition cGMP-PDE V (cGMP-PDE V; 0.1 μM): 65%
CCc1nn(C2CCCC2)c2nc(-c3ccc(OCC(=O)O)cc3OC)[nH]c(=O)c12 [Example 14, 1-cyclopentyl-3-ethyl-6-[(2-methoxy-4-carboxymethoxy)phenyl]pyrazolo[3,4-d]pyrimidin-4-one]	810 nM	–	–	–
CCOC(=O)COc1ccccc1-c1nc2n(C3CCCC3)[nH]c(CC)c-2c(=O)n1 [12 (b), 1-cyclopentyl-3-ethyl-6-[2-(ethoxycarbonylmethoxy)phenyl]pyrazolo [3,4-d]pyrimidin-4-one]	–	30	74	–

Further lines, with some results ahead:

IC50 (cGMP-PDE V)	inhibition at 0.1 µM (cGMP-PDE V; 0.1 μM) [%]	inhibition at 1 µM (cGMP-PDE V; 1 μM) [%]	Compound	other results
73 nM	–	–	CCc1[nH]n(C2CCCC2)c2nc(-c3cccc(OCCN4CCCCC4)c3)nc(=O)c1-2 [19 (b), 1-cyclopentyl-3-ethyl-6-[3-[2-(1-piperidinyl)ethoxy]phenyl]pyrazolo[3,4-d]pyrimidin-4-one]	ED25 [1]: 12.5 mg/kg; change in vivo at 10 mg/kg ([1]; 5 minutes after dose): -19%
4.9 nM	–	–	C=CCOc1ccccc1-c1nc2c(c(CC)nn2C2CCCC2)c(=O)[nH]1 [9 (b), 1-cyclopentyl-3-ethyl-6-[2-(CH2 =CH--CH2 O)phenyl]pyrazolo[3,4-d]pyrimidin-4-one]	change in vivo at 10 mg/kg ([1]; 5 minutes after dose): -19%
93 nM	–	–	CCc1[nH]n(C2CCCC2)c2nc(-c3cccc(OCC(=O)O)c3)nc(=O)c1-2 [Example 21, 1-cyclopentyl-3-ethyl-6-[3-(carboxymethoxy)phenyl]pyrazolo[3,4-d]pyrimidin-4-one]	change in vivo at 10 mg/kg ([1]; 5 minutes after dose): -1%
94 nM	–	–	CCOC(=O)COc1cccc(-c2nc3n(C4CCCC4)[nH]c(CC)c-3c(=O)n2)c1 [20 (b), 1-cyclopentyl-3-ethyl-6-[3-(ethoxycarbonylmethoxy)phenyl]pyrazolo[3,4-d]pyrimidin-4-one]	–
–	23	47	CCc1nn(C2CCCC2)c2nc(-c3ccc4c(c3)CCO4)[nH]c(=O)c12 [Example 32, 1-cyclopentyl-3-ethyl-6-(2,3-dihydrobenzo[b]furan-5-yl)pyrazolo[3,4-d]pyrimidin-4-one 1/10 hydrate]	–
2700 nM and 4500 nM	–	–	CCc1[nH]n(C2CCCC2)c2nc(-c3ccccc3OCCN3CCOCC3)nc(=O)c1-2 [11 (c), 1-cyclopentyl-3-ethyl-6-[2-[2-(4-morpholinyl)ethoxy]phenyl]pyrazolo[3,4-d]pyrimidin-4-one monohydrochloride]	–
–	21	56	CCc1[nH]n(C2CCCC2)c2nc(-c3ccc(NS(C)(=O)=O)cc3)nc(=O)c1-2 [Example 33, 1-cyclopentyl-3-ethyl-6-[4-(methylsulfonylamino)phenyl]pyrazolo[3,4-d]pyrimidin-4-one]	–
140 nM	–	–	CCc1[nH]n(C2CCCC2)c2nc(-c3cccc(OCCN4CCCC4)c3)nc(=O)c1-2 [22 (b), 1-cyclopentyl-3-ethyl-6-[3-[2-(1-pyrrolidinyl)ethoxy]phenyl]pyrazolo[3,4-d]pyrimidin-4-one]	ED25 [1]: 17.9 mg/kg; change in vivo at 10 mg/kg ([1]; 5 minutes after dose): -18%
–	58	–	CCc1[nH]n(C2CCCC2)c2nc(-c3ccc(OC)c(OCCN4CCOCC4)c3)nc(=O)c1-2 [35 (b), 1-cyclopentyl-3-ethyl-6-[4-methoxy-3-[2-(4-morpholinyl)ethoxy]phenyl]pyrazolo[3,4-d]pyrimidin-4-one]	inhibition at 0.01 µM (cGMP-PDE V; 0.01 μM): 13%
18 nM	26	76	CCOc1cc(-n2ccnc2)ccc1-c1nc2n(C3CCCC3)[nH]c(CC)c-2c(=O)n1 [46 (c), 1-cyclopentyl-3-ethyl-6-[4-(1-imidazolyl)-2-ethoxyphenyl]pyrazolo[3,4-d]pyrimidin-4-one]	inhibition at 10 µM (cGMP-PDE V; 10 μM): 90%
